Source: patent US20060034889A1, “Biodegradable diblock copolymers having reverse thermal gelation properties and methods of use thereof” (MacroMed, Inc., priority 2004, published 2006)

Conditions: 30% by weight aqueous PLG-PEG diblock copolymer solutions or gels, 120 days, 5 °C and 37 °C

drug intact after storage: greater than 85%
Structure (SMILES): CC(=O)O[C@H]1C(=O)[C@@]2(C)[C@H]([C@H](OC(=O)c3ccccc3)[C@]3(O)C[C@H](OC(=O)[C@H](O)[C@@H](NC(=O)c4ccccc4)c4ccccc4)C(C)=C1C3(C)C)[C@]1(OC(C)=O)CO[C@@H]1C[C@@H]2O [paclitaxel]
